Data as given in ChEMBL document CHEMBL1140282, “1,4-Benzodiazepine-2,5-diones as small molecule antagonists of the HDM2-p53 interaction: discovery and SAR” (Bioorg Med Chem Lett, 2005).

Key:
[1] = biological target: Tumour suppressor p53/oncoprotein Mdm2 (Homo sapiens, UniProt Q00987); assay: Inhibition of p53-binding to HDM2 (human MDM2) by fluorescence polarization peptide displacement assay; assay type: protein assay
[2] = Dissociation constant was determined; (by measuring difference in protein melting temperature); assay type: physicochemical

Sequence of Tumour suppressor p53/oncoprotein Mdm2 (P04637 whole entry): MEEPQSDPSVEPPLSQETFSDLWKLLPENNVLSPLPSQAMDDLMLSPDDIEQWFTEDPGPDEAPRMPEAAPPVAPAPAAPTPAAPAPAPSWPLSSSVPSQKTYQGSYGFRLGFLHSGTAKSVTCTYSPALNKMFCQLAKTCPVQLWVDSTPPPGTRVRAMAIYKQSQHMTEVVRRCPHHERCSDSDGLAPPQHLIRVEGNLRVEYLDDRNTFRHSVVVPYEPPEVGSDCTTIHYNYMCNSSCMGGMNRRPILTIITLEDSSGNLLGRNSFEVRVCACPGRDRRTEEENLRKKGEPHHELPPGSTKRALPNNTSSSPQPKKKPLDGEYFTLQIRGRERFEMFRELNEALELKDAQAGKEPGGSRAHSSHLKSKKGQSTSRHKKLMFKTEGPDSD
Sequence of Tumour suppressor p53/oncoprotein Mdm2 (Q00987 whole entry): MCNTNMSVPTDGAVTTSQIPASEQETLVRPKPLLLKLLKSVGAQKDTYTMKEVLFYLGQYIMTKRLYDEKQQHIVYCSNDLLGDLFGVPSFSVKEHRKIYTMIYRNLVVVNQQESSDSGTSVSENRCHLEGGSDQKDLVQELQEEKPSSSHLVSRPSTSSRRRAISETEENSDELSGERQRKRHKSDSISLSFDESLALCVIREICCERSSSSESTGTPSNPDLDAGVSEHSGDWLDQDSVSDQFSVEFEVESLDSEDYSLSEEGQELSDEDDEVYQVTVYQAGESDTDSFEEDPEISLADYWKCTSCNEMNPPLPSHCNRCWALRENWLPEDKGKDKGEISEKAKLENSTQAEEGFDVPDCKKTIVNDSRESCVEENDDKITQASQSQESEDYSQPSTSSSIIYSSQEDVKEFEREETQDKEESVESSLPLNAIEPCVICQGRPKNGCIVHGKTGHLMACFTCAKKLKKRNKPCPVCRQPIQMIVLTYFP

Row | Structure (SMILES) | IC50 [1] [µM] | Kd [2] [µM]
1 | O=C(O)[C@H](c1ccc(C(F)(F)F)cc1)N1C(=O)c2cc(I)ccc2NC(=O)[C@@H]1c1ccc(Cl)cc1 | 0.67 | 
2 | O=C(O)[C@H](c1ccccc1)N1C(=O)c2cc(I)ccc2NC(=O)[C@@H]1c1ccccc1 | 38 | 
3 | O=C(O)[C@H](c1ccc(Cl)cc1)N1C(=O)c2ccc(Cl)cc2NC(=O)[C@@H]1c1ccc(Cl)cc1 | 6.3 | 1.67
4 | O=C1Nc2ccc(I)cc2C(=O)N([C@H](C(=O)O)c2ccccc2Cl)[C@H]1c1ccc(Cl)cc1 | 20 | 
5 | O=C(O)[C@H](c1ccc(Cl)nc1)N1C(=O)c2cc(I)ccc2NC(=O)[C@@H]1c1ccc(Cl)cc1 | 1.47 | 
6 | O=C(O)[C@H](c1ccc(Cl)cc1)N1C(=O)c2ccccc2NC(=O)[C@@H]1c1ccc(Cl)cc1 | 14.8 | 7.69
7 | O=C(O)[C@H](c1ccc(Br)cc1)N1C(=O)c2cc(I)ccc2NC(=O)[C@@H]1c1ccc(Cl)cc1 | 0.62 | 0.083
8 | O=C(O)[C@H](c1ccc(Cl)cc1)N1C(=O)c2cc(I)ccc2NC(=O)[C@@H]1c1ccc(C(F)(F)F)cc1 | 0.62 | 
9 | CC(C)(C)c1ccc2c(c1)C(=O)N([C@H](C(=O)O)c1ccc(Cl)cc1)[C@@H](c1ccc(Cl)cc1)C(=O)N2 | 2.27 | 
10 | O=C(O)[C@H](c1ccc(Cl)nc1)N1C(=O)c2cc(I)ccc2NC(=O)[C@@H]1c1c[nH]c2ccccc12 | 55 | 
11 | CCc1ccc2c(c1)C(=O)N([C@H](C(=O)O)c1ccc(Cl)cc1)[C@@H](c1ccc(Cl)cc1)C(=O)N2 | 1.5 | 
12 | O=C(O)[C@H](c1ccccc1)N1C(=O)c2cc(I)ccc2NC(=O)[C@@H]1c1ccc(OC(F)(F)F)cc1 | 1.32 | 
13 | O=C(O)[C@H](c1ccc(Cl)cc1)N1C(=O)c2cc(Cl)ccc2NC(=O)[C@@H]1c1ccc(Cl)cc1 | 0.83 | 1.53
14 | O=C(O)[C@H](c1ccc(O)cc1)N1C(=O)c2cc(I)ccc2NC(=O)[C@@H]1c1ccc(Cl)cc1 | 16.5 | 14.3
15 | CC(C)CC[C@@H](C(=O)O)N1C(=O)c2cc(I)ccc2NC(=O)[C@@H]1c1ccc(Cl)cc1 | 12 | 
16 | CCc1ccc([C@H]2C(=O)Nc3ccc(I)cc3C(=O)N2[C@H](C(=O)O)c2ccccc2)cc1 | 7.5 | 
17 | CC(=O)Nc1ccc2c(c1)C(=O)N([C@H](C(=O)O)c1ccc(Cl)cc1)[C@@H](c1ccc(Cl)cc1)C(=O)N2 | > 125 | 
18 | O=C(O)[C@H](c1ccccc1)N1C(=O)c2cc(I)ccc2NC(=O)[C@@H]1c1ccc(Cl)cc1 | 2.5 | 
19 | O=C(O)[C@H](c1cccc(Cl)c1)N1C(=O)c2cc(I)ccc2NC(=O)[C@@H]1c1ccc(Cl)cc1 | 2.7 | 
20 | O=C(O)[C@H](c1ccc(Cl)cc1)N1C(=O)c2cc(I)ccc2NC(=O)[C@@H]1c1ccc(Cl)nc1 | 7.4 | 
21 | O=C(O)[C@H](c1ccc(Cl)cc1)N1C(=O)c2cc(Br)ccc2NC(=O)[C@@H]1c1ccc(Cl)cc1 | 0.83 | 0.97
22 | O=C(O)[C@H](c1ccc(Cl)cc1)N1Cc2cc(I)ccc2NC[C@@H]1c1ccc(Cl)cc1 | > 125 | 

Further lines, results first:

Row | IC50 [1] [µM] | Kd [2] [µM] | Structure (SMILES)
23 | 1.55 | 0.083 | CC(C)c1ccc([C@@H](C(=O)O)N2C(=O)c3cc(I)ccc3NC(=O)[C@@H]2c2ccc(Cl)cc2)cc1
24 | 13.3 |  | Cc1ccc([C@H]2C(=O)Nc3ccc(I)cc3C(=O)N2[C@H](C(=O)O)c2ccccc2)cc1
25 | 45 |  | O=C(O)[C@H](c1ccccc1)N1C(=O)c2cc(I)ccc2NC(=O)[C@@H]1c1cccc(C(F)(F)F)c1
26 | 2.4 |  | O=C(O)[C@H](c1ccc(Cl)cc1)N1C(=O)c2cc(CCO)ccc2NC(=O)[C@@H]1c1ccc(Cl)cc1
27 | 7.9 |  | O=C(O)[C@H](c1ccc(Cl)nc1)N1C(=O)c2cc(I)ccc2NC(=O)[C@@H]1c1cc2ccccc2[nH]1
28 | 1.59 | 0.167 | Cc1ccc([C@@H](C(=O)O)N2C(=O)c3cc(I)ccc3NC(=O)[C@@H]2c2ccc(Cl)cc2)cc1
29 | 0.49 |  | O=C(O)[C@H](c1ccc(Cl)cc1)N1C(=O)c2cc(I)ccc2NC[C@@H]1c1ccc(Cl)cc1
30 | 2.27 |  | CC(C)(C)c1ccc([C@@H](C(=O)O)N2C(=O)c3cc(I)ccc3NC(=O)[C@@H]2c2ccc(Cl)cc2)cc1
31 | 1.02 |  | CC(C)c1ccc2c(c1)C(=O)N([C@H](C(=O)O)c1ccc(Cl)cc1)[C@@H](c1ccc(Cl)cc1)C(=O)N2
32 | 14 |  | CCCC[C@@H](C(=O)O)N1C(=O)c2cc(I)ccc2NC(=O)[C@@H]1c1ccc(Cl)cc1
33 | 3.3 |  | O=C(O)[C@H](c1ccc(Cl)cc1)N1C(=O)c2cc(CO)ccc2NC(=O)[C@@H]1c1ccc(Cl)cc1
34 | 0.87 | 0.25 | C#Cc1ccc2c(c1)C(=O)N([C@H](C(=O)O)c1ccc(Cl)cc1)[C@@H](c1ccc(Cl)cc1)C(=O)N2
35 | 14.8 | 10 | N#Cc1ccc2c(c1)C(=O)N([C@H](C(=O)O)c1ccc(Cl)cc1)[C@@H](c1ccc(Cl)cc1)C(=O)N2
36 | 12 |  | O=C1Nc2ccc(I)cc2C(=O)N([C@@H](Cc2ccccc2)C(=O)O)[C@H]1c1ccc(Cl)cc1
37 | 0.7 | 0.167 | O=C(O)[C@H](c1ccc(Cl)cc1)N1C(=O)c2cc(I)c(Cl)cc2NC(=O)[C@@H]1c1ccc(Cl)cc1
38 | 64 |  | O=C1Nc2ccc(I)cc2C(=O)N([C@H](C(=O)O)C2CCCCC2)[C@H]1c1ccc(Cl)cc1
39 | 18 |  | CC(C)c1ccc([C@H]2C(=O)Nc3ccc(I)cc3C(=O)N2[C@H](C(=O)O)c2ccccc2)cc1
40 | 0.083 | 0.76 | O=C(O)[C@H](c1ccc(Cl)cc1)N1C(=O)c2cc(I)ccc2NC(=O)[C@@H]1c1ccc(OC(F)(F)F)cc1
41 | > 125 |  | O=C(O)[C@H](c1ccccc1)N1C(=O)c2cc(I)ccc2NC(=O)[C@@H]1c1ccccc1C(F)(F)F
